These are literature values, as cited in patent publication US20180228856A1, “Antibacterial combination of Basil oil and Taiwan red cypress oil for preventing drug-resistant S. aureus infections and the use thereof” (priority 2017, published 2018).

The structures appear in SMILES notation. ≈ marks a conversion by molar mass, not a printed value.

The data set deals with VISA strain Z172. The following applies: strain characteristic of Z172.

As to `CCCCCCCCCC(=O)N[C@@H](Cc1c[nH]c2ccccc12)C(=O)N[C@H](CC(N)=O)C(=O)N[C@@H](CC(=O)O)C(=O)N[C@@H]1C(=O)NCC(=O)N[C@@H](CCCN)C(=O)N[C@@H](CC(=O)O)C(=O)N[C@H](C)C(=O)N[C@@H](CC(=O)O)C(=O)NCC(=O)N[C@H](CO)C(=O)N[C@@H]([C@H](C)CC(=O)O)C(=O)N[C@@H](CC(=O)c2ccccc2N)C(=O)O[C@@H]1C` [daptomycin], the “minimum inhibitory concentration (MIC)” value is more than 4 µg/mL.

`CN[C@H](CC(C)C)C(=O)N[C@H]1C(=O)N[C@@H](CC(N)=O)C(=O)N[C@H]2C(=O)N[C@H]3C(=O)N[C@H](C(=O)N[C@H](C(=O)O)c4cc(O)cc(O)c4-c4cc3ccc4O)[C@H](O)c3ccc(c(Cl)c3)Oc3cc2cc(c3O[C@@H]2O[C@H](CO)[C@@H](O)[C@H](O)[C@H]2O[C@H]2C[C@](C)(N)[C@H](O)[C@H](C)O2)Oc2ccc(cc2Cl)[C@H]1O` [vancomycin]: the “minimum inhibitory concentration (MIC)” value is 4 µg/mL (≈ 2.76 µM).
